PMC5259782, “Allosteric Inhibition of Phosphoenolpyruvate Carboxylases is Determined by a Single Amino Acid Residue in Cyanobacteria” (Scientific Reports, 2017)
Where a chain is given by its changes, count along the chain named. Names and notes keep the numbering of the source.

Tests used:
SyPEPC [1] = target: T1, SyPEPC (Synechocystis sp. PCC 6803, UniProt P74299, E954K); assay: malate dehydrogenase-coupled NADH assay, residual activity; assay type: biochemical; settings: fumarate; allosteric
T1 construct: gene ppc

SyPEPC [2] = target: T2, SyPEPC (Synechocystis sp. PCC 6803, UniProt P74299); assay: as above; assay type: biochemical; settings: read-out: SyPEPC activity (in vitro)
T2 construct: gene ppc
T2 sequence (P74299 1-1034): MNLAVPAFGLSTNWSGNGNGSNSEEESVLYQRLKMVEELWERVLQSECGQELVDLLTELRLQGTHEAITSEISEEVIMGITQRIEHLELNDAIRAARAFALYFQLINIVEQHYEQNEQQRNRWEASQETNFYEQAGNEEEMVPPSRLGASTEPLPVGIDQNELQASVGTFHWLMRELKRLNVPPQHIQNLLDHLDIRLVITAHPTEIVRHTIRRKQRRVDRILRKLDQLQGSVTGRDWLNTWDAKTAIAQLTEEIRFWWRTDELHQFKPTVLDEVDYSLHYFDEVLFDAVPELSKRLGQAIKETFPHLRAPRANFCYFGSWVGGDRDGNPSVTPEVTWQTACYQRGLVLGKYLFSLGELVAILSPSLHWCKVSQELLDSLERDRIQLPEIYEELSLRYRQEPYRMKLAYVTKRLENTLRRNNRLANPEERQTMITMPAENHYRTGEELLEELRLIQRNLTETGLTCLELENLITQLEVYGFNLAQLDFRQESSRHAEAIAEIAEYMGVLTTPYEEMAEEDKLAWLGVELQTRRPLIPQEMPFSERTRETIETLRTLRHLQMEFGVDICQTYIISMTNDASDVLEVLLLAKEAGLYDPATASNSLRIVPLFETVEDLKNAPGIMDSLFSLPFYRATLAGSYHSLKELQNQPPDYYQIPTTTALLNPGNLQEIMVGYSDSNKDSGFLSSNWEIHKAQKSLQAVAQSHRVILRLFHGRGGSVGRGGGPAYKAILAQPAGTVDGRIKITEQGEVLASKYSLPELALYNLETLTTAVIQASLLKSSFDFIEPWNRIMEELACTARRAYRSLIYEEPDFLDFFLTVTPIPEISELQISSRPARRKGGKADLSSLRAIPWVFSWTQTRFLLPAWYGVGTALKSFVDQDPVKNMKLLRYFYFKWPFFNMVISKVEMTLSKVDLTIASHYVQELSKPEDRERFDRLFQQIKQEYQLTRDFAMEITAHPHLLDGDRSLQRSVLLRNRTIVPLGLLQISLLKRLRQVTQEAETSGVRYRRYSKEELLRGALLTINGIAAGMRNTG
Text: malate dehydrogenase-coupled NADH assay, residual activity on SyPEPC

AnPEPC [3] = target: T3, AnPEPC (Nostoc sp. PCC 7120 = FACHB-418, UniProt P28594); assay: as above; assay type: biochemical; settings: read-out: % activity remaining at 1 mM
T3 construct: gene ppc

AnPEPC [4] = target: T4, AnPEPC (Nostoc sp. PCC 7120 = FACHB-418, UniProt P28594, K946E); assay: as above; assay type: biochemical; settings: aspartate; allosteric
T4 construct: gene ppc

AnPEPC [5] = target: T3, AnPEPC; assay: as above; assay type: biochemical; settings: aspartate; allosteric
purified protein = substrate: O=C(O)O; assay: purified protein; settings: PEP
[6] = substrate: C=C(OP(=O)(O)O)C(=O)O; assay: malate dehydrogenase-coupled NADH assay (A340), Lineweaver-Burk; assay type: biochemical, Synechocystis sp. PCC 6803
[7] = substrate: C=C(OP(=O)(O)O)C(=O)O; assay: as above; assay type: biochemical, Nostoc sp. PCC 7120 = FACHB-418

T4 sequence (P28594 whole entry K946E): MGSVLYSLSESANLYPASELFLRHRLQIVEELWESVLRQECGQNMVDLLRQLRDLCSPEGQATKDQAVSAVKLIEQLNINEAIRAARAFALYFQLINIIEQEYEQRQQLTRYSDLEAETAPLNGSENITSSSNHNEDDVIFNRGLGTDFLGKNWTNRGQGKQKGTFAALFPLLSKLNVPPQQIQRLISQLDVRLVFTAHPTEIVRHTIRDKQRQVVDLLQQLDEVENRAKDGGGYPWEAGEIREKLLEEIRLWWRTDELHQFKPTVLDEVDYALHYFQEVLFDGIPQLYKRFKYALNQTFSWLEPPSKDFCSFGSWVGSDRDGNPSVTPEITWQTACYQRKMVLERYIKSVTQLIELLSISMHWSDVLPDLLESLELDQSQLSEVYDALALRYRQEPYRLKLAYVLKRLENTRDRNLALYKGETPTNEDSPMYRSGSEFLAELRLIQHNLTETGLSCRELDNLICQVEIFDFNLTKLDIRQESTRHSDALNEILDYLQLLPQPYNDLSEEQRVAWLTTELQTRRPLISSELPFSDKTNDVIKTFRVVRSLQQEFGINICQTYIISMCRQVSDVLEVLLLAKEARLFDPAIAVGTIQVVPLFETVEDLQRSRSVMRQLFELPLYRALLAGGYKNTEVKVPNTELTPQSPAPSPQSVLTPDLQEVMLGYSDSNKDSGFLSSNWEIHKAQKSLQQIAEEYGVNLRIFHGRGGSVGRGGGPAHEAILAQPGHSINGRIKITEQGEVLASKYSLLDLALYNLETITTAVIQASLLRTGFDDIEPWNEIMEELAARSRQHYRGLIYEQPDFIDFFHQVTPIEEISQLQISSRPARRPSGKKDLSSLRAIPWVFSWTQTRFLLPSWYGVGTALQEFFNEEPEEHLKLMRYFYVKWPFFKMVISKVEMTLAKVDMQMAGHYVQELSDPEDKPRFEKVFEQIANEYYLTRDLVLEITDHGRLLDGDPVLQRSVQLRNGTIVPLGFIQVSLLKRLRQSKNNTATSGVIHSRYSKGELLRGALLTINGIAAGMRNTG
T1 sequence (P74299 whole entry E954K): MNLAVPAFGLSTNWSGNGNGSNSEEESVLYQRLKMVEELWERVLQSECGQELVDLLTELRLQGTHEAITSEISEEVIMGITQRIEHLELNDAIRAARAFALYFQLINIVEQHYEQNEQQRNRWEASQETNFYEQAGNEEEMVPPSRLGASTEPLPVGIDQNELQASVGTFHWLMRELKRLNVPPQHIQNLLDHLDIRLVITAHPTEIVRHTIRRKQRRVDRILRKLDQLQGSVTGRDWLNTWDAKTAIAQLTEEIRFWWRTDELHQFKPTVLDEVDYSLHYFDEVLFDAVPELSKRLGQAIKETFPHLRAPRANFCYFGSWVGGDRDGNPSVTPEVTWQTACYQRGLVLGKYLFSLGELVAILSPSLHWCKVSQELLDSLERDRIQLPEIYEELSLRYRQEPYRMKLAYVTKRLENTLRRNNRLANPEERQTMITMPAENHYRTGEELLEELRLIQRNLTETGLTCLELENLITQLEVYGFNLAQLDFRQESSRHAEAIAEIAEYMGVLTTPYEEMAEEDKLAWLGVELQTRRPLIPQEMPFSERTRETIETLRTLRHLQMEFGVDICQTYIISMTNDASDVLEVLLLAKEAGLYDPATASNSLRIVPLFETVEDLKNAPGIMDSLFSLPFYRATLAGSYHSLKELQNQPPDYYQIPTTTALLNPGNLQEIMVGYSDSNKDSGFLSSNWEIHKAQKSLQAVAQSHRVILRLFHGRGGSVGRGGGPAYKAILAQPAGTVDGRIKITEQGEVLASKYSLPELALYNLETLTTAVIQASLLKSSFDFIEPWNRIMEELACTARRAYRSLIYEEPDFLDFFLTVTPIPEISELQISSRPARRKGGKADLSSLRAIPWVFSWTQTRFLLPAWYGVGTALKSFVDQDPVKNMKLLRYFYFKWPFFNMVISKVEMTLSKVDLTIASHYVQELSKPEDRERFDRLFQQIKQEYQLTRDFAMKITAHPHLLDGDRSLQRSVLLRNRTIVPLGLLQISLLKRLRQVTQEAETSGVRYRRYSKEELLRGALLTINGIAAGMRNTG

**Q.** For O=C(O)/C=C/C(=O)O [fumarate], which “% activity remaining” value (SyPEPC [1]) is on record?
**A.** Its value is “The inhibitory effect of fumarate was also enhanced in SyPEPC_E954K compared with SyPEPC”.

**Q.** And the activity at 1000 µM (SyPEPC [2])?
**A.** The activity at 1000 µM was 75 ± 9.7%.

**Q.** Which remaining activity at 1000 µM (AnPEPC [3]) does the source give for O=C(O)C[C@H](O)C(=O)O [malate] here?
**A.** Its remaining activity at 1000 µM is < 30%.

**Q.** What about the activity at 1000 µM (SyPEPC [2]) of the same molecule?
**A.** The activity at 1000 µM was 77.1 ± 6.3%.

**Q.** For N[C@@H](CC(=O)O)C(=O)O [aspartate], which activity at 1000 µM (SyPEPC [2]) is on record?
**A.** Its activity at 1000 µM is 85.2 ± 10.7%.

**Q.** And the “% activity remaining” value (AnPEPC [4])?
**A.** The value was “The inhibitory effect of aspartate on AnPEPC was not altered by this amino acid substitution”.

**Q.** What about the “% activity remaining” value (AnPEPC [5]) of the same molecule?
**A.** The value was “The inhibitory effect of aspartate on AnPEPC was not altered by this amino acid substitution”.

**Q.** For O=C(O)CCC(=O)O [succinate], which activity at 1000 µM (SyPEPC [2]) is on record?
**A.** The activity at 1000 µM was 124 ± 12.3%.

B1: SyPEPC (Synechocystis sp. PCC 6803 substr. Kazusa; E954K) (protein)
chain: T2 sequence (P74299 1-1034) with E954K
**Q.** Which Km (purified protein; 10 mM MgCl2) does the source give for B1 here?
**A.** Its Km is 760 µM.

**Q.** And the Km ([6]; 50 mM NaHCO3, 10 mM MgCl2)?
**A.** Its Km is 820 µM.

B2: AnPEPC (Nostoc sp. PCC 7120 = FACHB-418) (protein)
chain: MGSVLYSLSESANLYPASELFLRHRLQIVEELWESVLRQECGQNMVDLLRQLRDLCSPEGQATKDQAVSAVKLIEQLNINEAIRAARAFALYFQLINIIEQEYEQRQQLTRYSDLEAETAPLNGSENITSSSNHNEDDVIFNRGLGTDFLGKNWTNRGQGKQKGTFAALFPLLSKLNVPPQQIQRLISQLDVRLVFTAHPTEIVRHTIRDKQRQVVDLLQQLDEVENRAKDGGGYPWEAGEIREKLLEEIRLWWRTDELHQFKPTVLDEVDYALHYFQEVLFDGIPQLYKRFKYALNQTFSWLEPPSKDFCSFGSWVGSDRDGNPSVTPEITWQTACYQRKMVLERYIKSVTQLIELLSISMHWSDVLPDLLESLELDQSQLSEVYDALALRYRQEPYRLKLAYVLKRLENTRDRNLALYKGETPTNEDSPMYRSGSEFLAELRLIQHNLTETGLSCRELDNLICQVEIFDFNLTKLDIRQESTRHSDALNEILDYLQLLPQPYNDLSEEQRVAWLTTELQTRRPLISSELPFSDKTNDVIKTFRVVRSLQQEFGINICQTYIISMCRQVSDVLEVLLLAKEARLFDPAIAVGTIQVVPLFETVEDLQRSRSVMRQLFELPLYRALLAGGYKNTEVKVPNTELTPQSPAPSPQSVLTPDLQEVMLGYSDSNKDSGFLSSNWEIHKAQKSLQQIAEEYGVNLRIFHGRGGSVGRGGGPAHEAILAQPGHSINGRIKITEQGEVLASKYSLLDLALYNLETITTAVIQASLLRTGFDDIEPWNEIMEELAARSRQHYRGLIYEQPDFIDFFHQVTPIEEISQLQISSRPARRPSGKKDLSSLRAIPWVFSWTQTRFLLPSWYGVGTALQEFFNEEPEEHLKLMRYFYVKWPFFKMVISKVEMTLAKVDMQMAGHYVQELSDPEDKPRFEKVFEQIANEYYLTRDLVLKITDHGRLLDGDPVLQRSVQLRNGTIVPLGFIQVSLLKRLRQSKNNTATSGVIHSRYSKGELLRGALLTINGIAAGMRNTG
**Q.** Which results are given for B2?
**A.** Km (purified protein; 10 mM MgCl2, pH and temperature not stated (optimum pH 8.0, 35 °C), pH 8.0, 35.0 °C): 240 µM; Km ([7]; 50 mM NaHCO3, 10 mM MgCl2, pH and temperature not stated (optimum pH 8.0, 35 °C)): 1100 µM

B3: AnPEPC (Nostoc sp. PCC 7120 = FACHB-418; K946E) (protein)
chain: B2 chain with K946E
**Q.** How did the Km (purified protein; 10 mM MgCl2) turn out when B3 was run?
**A.** Its Km is 250 µM.

**Q.** What about the Km ([7]; 50 mM NaHCO3, 10 mM MgCl2) of the same molecule?
**A.** The Km was 800 µM.

B4: SyPEPC (Synechocystis sp. PCC 6803 substr. Kazusa) (protein)
chain: T2 sequence (P74299 1-1034)
**Q.** B4 was tested. Which Km (purified protein; 10 mM MgCl2, pH 7.3, 30 °C, pH 7.3, 30.0 °C) did it give?
**A.** The Km was 800 µM.

**Q.** What about the Km ([6]; 50 mM NaHCO3, 10 mM MgCl2, pH 7.3, 30 °C) of the same molecule?
**A.** The Km was 340 µM.
